# Test results: patent publication US20110224197A1, “PYRIMIDINES AND PYRIDINES USEFUL AS INHIBITORS OF PROTEIN KINASES” (Vertex Pharmaceuticals Incorporated, priority 2008, published 2011)
# Key:
# spinal cord injury model = assay: Spinal Cord Injury Model; details: in vivo
# Method: Compound I-37 was tested in a spinal cord injury model similar to the one described in Dill, et al, (2008) “Inactivation of Glycogen Synthase Kinase 3 Promotes Axonal Growth and Recover in CNS” The Journal of Neuroscience, 28(36): 8914-8928.
# [1] = system: Middle Cerebral Artery Occlusion in adult male Wistar rats; assay: Post Stroke Recovery Model II (MCA electrocoagulation, behavioral tests); format: in vivo, rat
# Excerpt: Adult male Wistar rats are pre-trained on a battery of behavioral tests including: tray reach, gridwalk, forelimb asymmetry (cylinder bracing), forelimb inhibition (swim test) (see below for detailed description of tests). Following pre-stroke behavioral assessment, the rats received surgery, during which a stroke is induced. The rats are pseudo-randomly divided into 5 equal groups (n=12) ensuring an equal number of right and left strokes within each treatment group. The first group receives sham surgery with vehicle as treatment. Administration of the test compound and vehicle (dose, route, timing) is determined by the sponsor. The core body temperature is maintained at 37° C. (+/−1°).
# Following surgery, all animals are behaviorally assessed 1, 7, and 14 d post-stroke. At the conclusion of behavioral assessment, all rats undergo an MRI to determine infarct volume. Group behavioral performance and stroke volume are compared between groups using one way analysis of variance to determine therapeutic benefit of the compound in rate and extent of recovery of function following MCAO stroke.
# Each animal is weighed (average weights were 340 g) and then anesthetized with isoflurane (4% isoflurane carried on 21/min medical grade oxygen to induce surgical plane and then 2% with 2 l/min oxygen to maintain a surgical plane). Following induction of anesthesia each rat is individually marked with an ear-punch and administered a subcutaneous dose of buprenorphine (0.025 mg/kg). Rectal temperature is monitored and maintained at 37° C.+/−1° C. for the duration of the surgery and until the rat is awake and mobile (approximately 3 hr).
# The rat is then placed into a stereotaxic apparatus positioned such that the lateral aspect of the head was facing up. The skin between the eye […] and ear is shaved and washed with surgical antiseptic scrub. A vertical incision is made midway between the right orbit and external auditory canal. The underlying temporalis muscle is incised, detached from the skull and retracted with care to preserve the facial nerve. Two sutures hold the temporal muscle away from the lateral aspect of the skull. A craniotomy is performed from the posterior zygoma and along the temporal ridge of the cranium extending ventrally to expose the middle cerebral artery (MCA) and olfactory tract. The dura is opened, and the base of the MCA and the anterior portion of the first branch is electrocoagulated ventral to the olfactory tract, resulting in infarction of the right dorsolateral cerebral cortex.
# Time at which stroke occurred is noted upon completion of the electrocoagulation of the MCA. Once bleeding is controlled, the temporal muscle is replaced and the skin sutured. The rat is then removed from the stereotaxic apparatus and moved to the recovery room. A second subcutaneous dose of buprenorphine (0.025 mg/kg) is administered along with 2 cc of Ringers solution. Water, wet rat chow mash, and a warming blanket under 1/2 the cage is made available while in the recovery room. Once the rat is awake and seen to be eating and drinking, it is moved back into its cage in the animal colony.
# Forepaw use is measured with a procedure that is adapted from the method devised by Whishaw, O'Connor, and Dunnett (1986). Each animal is food-restricted such that feeding time occurs after testing each day. The animals are placed in test cages (10×18×10 cm high) with floors and fronts constructed of 2-mm bars, 9 mm apart edge to edge. […]
# β-catenin = β-catenin in brain, Post Stroke Model II; format: in vivo, rat; details: all doses
# Method: To track the activity of Compound I-37 in the CNS of rats subjected to MCAO, brains were removed and protein lysate was obtained (as described herein) from both vehicle treated and compound treated animals at the termination of the study. Lysates were analyzed by Western blot and probed for GSK-3α/β pTYR levels.
# Protein lysate is obtained from the brains of all vehicle and compound-treated animals and is processed for biomarker analysis of GSK3α/β pTYR and β-catenin by Western blot assay to ensure compound activity on the target.
smiles,measurement,setting,value
"Cc1nc(-c2ccccc2Cl)nc(Nc2n[nH]c3ncc(F)cc23)c1C [Compound I-37, N-(2-(2-chlorophenyl)-5,6-dimethylpyrhnidin-4-yl)-5-fluoro-1H-pyrazolo[3,4-b]pyridin-3-amine]",functional recovery,spinal cord injury model,did not appear to improve functional recovery
same,Forelimb inhibition (swimming test) deficit,[1]; 7 and 14 days after stroke,significantly ameliorated this deficit
same,Gridwalk deficit,[1]; 7 and 14 days after stroke,significantly ameliorated this deficit
same,Tray reaching deficit compared with vehicle treatment,[1]; 7 and 14 days after stroke,significantly ameliorated this deficit
same,Forepaw asymmetry (cylinder test) deficit,"[1]; low dose, 14 days after stroke",significantly ameliorated this deficit
same,Adhesive removal test,"[1]; rat, in vivo",did not show significant effect
same,induction of β-catenin,β-catenin,no induction
